Data from patent US12577267B2, “Pyrimidine compounds for use as MAP4K1 inhibitors” (GLENMARK SPECIALITY S.A., priority 2021, dated 2026).
Where a name gives a salt, the structure may show the parent alone. Read-outs that look alike come from different tables or passages of the source.

Columns and labels:
MAP4K-1 enzyme = MAP4K-1 enzyme (Homo sapiens, UniProt Q92918); assay: FRET one step binding assay (tracer displacement)
Procedure, shortened: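 TR-FRET tracer-displacement binding with 5 nM GST-tagged MAP4K-1 and 2 nM Eu-anti-GST antibody in 50 mM HEPES pH 7.5, 10 mM MgCl2, 1 mM EGTA, 0.01% Brij-35, 3% DMSO final. Compound pre-incubated 15 min on ice, then 1 h at room temperature after tracer addition. IC50 from nonlinear regression of percent-of-control dose-response.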

CT26 tumor = assay: Anti-tumor efficacy on a syngeneic mouse colon tumor model of CT26; type: in vivo, BALB/c mice
Method: Evaluation of Anti-Tumor Efficacy of Example 2 and Example 30 on a Syngeneic Mouse Colon Tumor Model of CT26.
Healthy female BALB/c mice (7 to 9 weeks old and 15 to […]) were obtained from Glenmark animal facility. Animals were group housed in polypropylene cages at a controlled temperature of 20-22° C. with a light/dark cycle of 12/12 hours. They were maintained on an ad lib standard mouse pellet diet and water and all animal experiments were performed as per protocols approved by the Institutional Animal Ethics Committee (IAEC).
CT-26 cell line was obtained from American type culture (ATCC® CRL-2638™). Cells were revived in T-flask (passage 5) with complete RPMI-1640 media and incubated at 37° C. in 5% CO2, 80% relative humidity. Cells were re-suspended, pooled and split into 1:10 ratio per flask, maintained for 3 passages and passage 8 was used for cell inoculation into animals.
The right flank region of mice was shaved by electronic shaver. Required number of CT26 cells (10 million per mL of serum free media) received on ice from cell culture lab. The mice were anesthetized by isoflurane with O2 (oxygen flow meter to 1-2 liter/min and turn isoflurane vaporizer dial to 2-3%). The cells were inoculated into the right flank region of mice at cell concentration of 1 million cells/100 μL/mouse. The inoculated mice were housed in the animal room with daily observation for any undue clinical signs.
On day 10 after cell inoculation, mice were randomized based on tumor volume and grouped into different treatment groups. The mice with tumor volume range of 57 mm^3 to 119 mm^3 were included in efficacy study. Tumor volume was measured using digital vernier caliper.
The volume calculations were obtained using the formula V(mm^3)=[L×(W×W)]×0.52 • V is tumor volume, L is tumor length and W is tumor width
Compound Preparation and Administration
0.5% v/v Tween 80 and 0.5% w/v Methyl Cellulose in distilled water was used as vehicle for oral formulation. Example 2 and Example 30 were weighed and a stock suspension of 50 mg/kg/10 mL was prepared in a mortar and pestle by adding Tween 80 (0.5% v/v), Methyl cellulose (MC, 0.5% w/v). […] The body weights were recorded on daily basis and the dosing time was maintained throughout the study. […]
Tumor volume was measured in a blinded manner throughout the study. […] The % TGI was calculated by following the formula: [1−{(Tt−T0)/(Ct−C0)}]×100. • Tt=Tumor volume of treatment group on day of tumor volume • T0=Tumor volume of treatment group on day of randomization • Ct=Tumor volume of vehicle control group on day of tumor volume • C0=Tumor volume of control group on day of randomization Sacrifice Plan […]
Tumor volume data was statistically analyzed using Two-way ANOVA followed by Bonferroni's Multiple Comparison Test. […]

Chain of MAP4K-1 enzyme (Q92918 whole entry): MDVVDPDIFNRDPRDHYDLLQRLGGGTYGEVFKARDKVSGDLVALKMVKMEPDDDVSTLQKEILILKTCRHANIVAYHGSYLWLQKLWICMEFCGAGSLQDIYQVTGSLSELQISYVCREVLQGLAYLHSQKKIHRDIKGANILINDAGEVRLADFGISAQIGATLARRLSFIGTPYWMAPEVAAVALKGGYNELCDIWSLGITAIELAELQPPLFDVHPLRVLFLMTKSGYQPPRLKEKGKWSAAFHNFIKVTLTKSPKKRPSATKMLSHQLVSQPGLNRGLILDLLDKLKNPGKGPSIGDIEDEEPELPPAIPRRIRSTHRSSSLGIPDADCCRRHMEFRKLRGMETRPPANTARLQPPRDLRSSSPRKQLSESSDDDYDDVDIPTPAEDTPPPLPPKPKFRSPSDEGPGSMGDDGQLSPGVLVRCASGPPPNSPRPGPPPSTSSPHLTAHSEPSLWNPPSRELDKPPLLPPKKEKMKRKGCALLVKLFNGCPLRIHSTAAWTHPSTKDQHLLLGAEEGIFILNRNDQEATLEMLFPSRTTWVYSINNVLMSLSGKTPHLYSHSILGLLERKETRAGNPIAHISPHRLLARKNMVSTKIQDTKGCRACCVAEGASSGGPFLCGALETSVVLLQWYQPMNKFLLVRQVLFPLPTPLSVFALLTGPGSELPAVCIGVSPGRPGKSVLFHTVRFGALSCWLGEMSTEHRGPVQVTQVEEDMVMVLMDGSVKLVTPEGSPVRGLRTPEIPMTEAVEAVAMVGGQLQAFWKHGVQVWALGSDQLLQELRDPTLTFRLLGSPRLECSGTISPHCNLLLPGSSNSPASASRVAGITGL

Row | Structure (SMILES) | IC50 (MAP4K-1 enzyme) [nM] | % Inhibition at 1 μM (MAP4K-1 enzyme; 1 μM compound, 1 µM) [%] | % Inhibition at 10 μM (MAP4K-1 enzyme; 10 μM compound, 10 µM) [%] | Tumor growth inhibition (TGI) (CT26 tumor; 10 mg/kg p.o. QD, day 25, vs vehicle group) [%] | Tumor growth inhibition (TGI) (CT26 tumor; 50 mg/kg p.o. QD, day 25, vs vehicle group) [%] | inhibition at 1 µM (MAP4K-1 enzyme; 1 μM compound) [%] | inhibition at 10 µM (MAP4K-1 enzyme; 10 μM compound) [%] | IC50 (MAP4K-1 enzyme; IC50 (nM)) [nM] | Tumor growth inhibition (TGI) (CT26 tumor; 10 mg/kg p.o. QD, day 24, vs vehicle group) [%] | Tumor growth inhibition (TGI) (CT26 tumor; 50 mg/kg p.o. QD, day 24, vs vehicle group) [%]
1 | COc1cc2c(cc1Nc1ncc(Cl)c(Nc3ccc(OS(=O)(=O)F)cc3P(C)(C)=O)n1)C(C)N(C)CC2 (single isomer, unassigned; isomer 2) [Example 30, 4-((5-Chloro-2-((6-methoxy-1,2-dimethyl-1,2,3,4-tetrahydroisoquinolin-7-yl)amino)pyrimidin-4-yl)amino)-3-(dimethylphosphoryl)phenyl sulfofluoridate dihydrochloride (Isomer 2)] | < 50 | 79.12 | 82.70 | 37 | 62 | – | – | – | – | –
2 | COc1cc2c(cc1Nc1ncc(Cl)c(Nc3ccc(OS(=O)(=O)F)cc3P(C)(C)=O)n1)CN(C)CC2 [Example 2, 4-((5-chloro-2-((6-methoxy-2-methyl-1,2,3,4-tetrahydroisoquinolin-7-yl)amino)pyrimidin-4-yl)amino)-3-(dimethylphosphoryl)phenyl sulfofluoridate dihydrochloride] | – | – | – | – | – | 86 | 82.1 | < 50 | 40 | 61
